Data on five molecules can be found in patent US7087610B2, “Benzothiazole antiviral agents” (priority 2004, dated 2006).

One may read the EC50 as the concentration that produces a half-maximal response.

The subject of the test is single-round infectious reporter virus (HIV-1 envelope). Description: HIV-1 single-round infectious luciferase reporter virus infection of HeLa CD4 cells. Type of test: cell-based. The note with it: Human immunodeficiency virus 1, HeLa, 72 h. The method, then: Cells: (virus production) human embryonic kidney cell line, 293, was propagated in Dulbecco's Modified Eagle Medium (Invitrogen, Carlsbad, Calif.) containing 10% fetal Bovine serum (FBS, Sigma, St. Louis, Mo.); (virus infection) human epithelial cell line, HeLa, expressing the HIV-1 receptor CD4 was propagated in Dulbecco's Modified Eagle Medium (Invitrogen, Carlsbad, Calif.) containing 10% fetal Bovine serum (FBS, Sigma, St. Louis, Mo.) and supplemented with 0.2 mg/mL Geneticin (Invitrogen, Carlsbad, Calif.).
Virus: single-round infectious reporter virus was produced by co-transfecting human embryonic kidney 293 cells with an HIV-1 envelope DNA expression vector and a proviral cDNA containing an envelope deletion mutation and the luciferase reporter gene inserted in place of HIV-1 nef sequences. Transfections were performed using lipofectAMINE PLUS reagent as described by the manufacturer (Invitrogen, Carlsbad, Calif.).
Experiment: HeLa CD4 cells were plated in 96 well plates at a cell density of 1×10^4 cells per well in 100 μl Dulbecco's Modified Eagle Medium containing 10 % fetal Bovine serum and incubated overnight. Compound was added in a 2 μl dimethylsulfoxide solution, so that the final assay concentration would be ≦10 μM. Single-round infectious reporter virus (100 μL) in Dulbecco's Modified Eagle Medium was then added to the plated cells and compound at an approximate multiplicity of infection (MOI) of 0.01, resulting in a final volume of 200 μl per well. Virally-infected cells were incubated at 37 degrees Celsius, in a CO2 incubator, and harvested 72 h after infection. Viral infection was monitored by measuring luciferase expression from viral DNA in the infected cells using a luciferase reporter gene assay kit, as described by the manufacturer (Roche Molecular Biochemicals, Indianapolis, Ind.). Infected cell supernatants were removed and 50 μl of lysis buffer was added per well. After 15 minutes, 50 μl of freshly-reconstituted luciferase assay reagent was added per well. Luciferase activity was then quantified by measuring luminescence using a Wallac microbeta luminescence reader.
The percent inhibition for each compound was calculated by quantifying the level of luciferase expression in cells infected in the presence of each compound as a percentage of that observed for cells infected in the absence of compound and subtracting such a determined value from 100. The effective concentration for fifty percent inhibition (EC50) was calculated with Microsoft Excel Xlfit curve fitting software. For each compound, curves were generated from percent inhibition calculated at 10 different concentrations by using a four paramenter logistic model (model 205).
In general terms: A reporter such as luciferase makes a cellular process visible.
`C[C@@H]1CN(C(=O)c2ccccc2)CCN1C(=O)C(C#N)c1nc2ccccc2s1` (stereo partly drawn) [Example 1, (R)-N-(benzoyl)-3-methyl-N′-[(benzothiazol-2-yl)-2-cyanoacetyl]-piperazine] gave an EC50 of less than 1 µM. In the case of `C[C@@H]1CN(C(=O)c2ccccc2)CCN1C(=O)C(=O)c1nc2ccccc2s1` [Example 2, (R)-N-(benzoyl)-3-methyl-N′-[(benzothiazol-2-yl)-2-oxoacetyl]-piperazine], the EC50 is less than 1 µM.

Regarding `C[C@@H]1CN(C(=O)c2ccccc2)CCN1C(=O)C(=O)c1ccc2scnc2c1` [Example 4, (R)-N-(benzoyl)-3-methyl-N′-[(benzothiazol-5-yl)-2-oxoacetyl]piperazine], the EC50 is less than 1 µM. Under `C[C@@H]1CN(C(=O)c2ccccc2)CCN1C(=O)C(=O)c1ccc2sc(-n3cccc3)nc2c1` [Example 7] stands less than 1 µM.

`C[C@@H]1CN(C(=O)c2ccccc2)CCN1C(=O)C(=O)c1ccc2sc(N)nc2c1` [Example 8]: the EC50 was less than 1 µM.
